Here are results for two compounds from patent US20220023552A1, “KIT FOR INHALED CHEMOTHERAPY, AND TREATMENT OF LUNG CANCER WITH SAID KIT” (UNIVERSITÉ LIBRE DE BRUXELLES, priority 2018, published 2022).

The subject of series [1] is M109-HiFR-LUC2 cells. In words: tumor growth by in vivo bioluminescence in orthotopic lung cancer mice model. Set-up: species or system BALB/c mice. To be noted: Example 4; p<0.05 for combination, p>0.05 for cisplatin IV. The method, then: The orthotopic intrapulmonary implantation procedure was performed using an adaption of the protocol described previously (Wauthoz et al., Nanomedicine 2015). Briefly, under anesthesia, 6 to 7-week-old BALB/c mice were grafted with 1.4 million M109-HiFR-LUC2 cells in 20 μL of a 50:50 v/v mix of folate-free RPMI/Matrigel® injected intercostally after incision of the skin and dissection of subcutaneous muscles. The different tissue incisions were stitched with a 3-0 silk (Ethicon®, St-Stevens-Woluwe, Belgium). The mice were closely observed until complete recovery. The therapeutic response of the M109 model to cisplatin was evaluated by in vivo optical imaging (bioluminescence) and survival analysis. Bioluminescence is directly proportional to the number of living M109-HiFR-LUC2 tumor cells. […]
The protocol described in example 3 has been reproduced, except that survival rates were also determined (no euthanasia on day 19 and no ex vivo bioluminescence analysis), the treatment started on day 6 according to the scheme table 3 below and that three groups of 4-15 mice were compared: […]
The protocol described in example 3 has been reproduced, except that survival rates were also determined (no euthanasia on day 19 and no ex vivo bioluminescence analysis), the treatment started on day 3 according to the scheme table 5 below and three groups of 8-16 mice were compared: […]

The test system of series [2] is M109-HiFR-LUC2 cells. Nature of the series: ex vivo bioluminescence analysis of tumor localization (resected lungs vs chest cavity). Format: in vivo, BALB/c mice. To be noted: Example 3 additional experiment, day 19 post engraftment.
Procedure: Briefly, under anesthesia, 6 to 7-week-old BALB/c mice were grafted with 1.4 million M109-HiFR-LUC2 cells in 20 μL of a 50:50 v/v mix of folate-free RPMI/Matrigel® injected intercostally after incision of the skin and dissection of subcutaneous muscles. The different tissue incisions were stitched with a 3-0 silk (Ethicon®, St-Stevens-Woluwe, Belgium). The mice were closely observed until complete recovery. The therapeutic response of the M109 model to cisplatin was evaluated by in vivo optical imaging (bioluminescence) and survival analysis. Bioluminescence is directly proportional to the number of living M109-HiFR-LUC2 tumor cells. Bioluminescence was performed up to day 19 post tumor cell engraftment using a Photonlmager RT (Biospace Lab, France) using the conventional supplier's protocol. Mice were weighted three times a week and sacrificed if their weight loss exceeded 20% from the beginning of the experiment or 15% from the last measurement or if they were suffocating. In these cases, the mouse death was notified as occurred the day after.
An additional experiment was performed evaluating cisplatin DPI according to example 1 vs cisplatin IV on the same lung cancer mice model. […]
Series [3] is described as follows: geometrical particle size distribution (PSD) by laser diffraction. Format: physicochemical. The following applies: mean ± SD, n = 3. The method, then: The geometrical PSD of bulk cisplatin, cisplatin microparticles from the size-reduction process, and cisplatin dry powder formulation, was measured as suspended and individualized particles. This was done using a Mastersizer 3000 laser diffractometer (Malvern Instruments Ltd., Worcestershire, UK) connected to a Hydro MV dispenser equipped with a 40 W ultrasonic probe (Malvern Instruments Ltd.). Measurements of bulk cisplatin and aliquots of cisplatin microparticles from the size-reduction process were performed in cisplatin-saturated isopropanol. […] The geometrical PSD of bulk cisplatin, cisplatin microparticles from the size-reduction process, and cisplatin dry powder formulation, was measured as suspended and individualized particles as described in the Example 1 and are presented in table 2.

Setting [4] is: Table 1, materials of Example 1.
Where [5] appears, read: Table 2, materials of Example 2.

For the compound `N.N.[Cl][Pt][Cl]` [cisplatin IV, cisplatin], in the series on M109-HiFR-LUC2 cells [1], the “significance of the decrease in tumor growth versus untreated control (1-way ANOVA)” value is given as “not”. Moreover, in the series with M109-HiFR-LUC2 cells [2] (chest cavity = loco-regional metastases), the “tumor growth in the chest, cisplatin IV compared with cisplatin DPI (FIG. 3)” value is “decrease of tumor growth in the chest”. Also, the “tumor growth in the lungs, cisplatin IV compared with cisplatin DPI (FIG. 3)” value in the series on M109-HiFR-LUC2 cells [2] (resected lungs = primary lung tumors) was “similar”.
Regarding `N.N.[Cl][Pt][Cl]` [Raw cisplatin, cisplatin], the “D50 (volume median diameter)” value in series [3] (setting [4]) came to 16.5 ± 3.6 μm; in series [3] (setting [5]) it was 6.3 ± 0.1 μm. Also, the “D[4,3] (volume mean diameter)” value was 18.9 ± 4.3 μm in series [3] (setting [4]) and 7.1 ± 0.2 μm in series [3] (setting [5]).
